In brackets after ≈: the same amount, converted by molar mass.
What was measured:
[1] = tested on: Escherichia coli (ATCC 25922); experiment: Antibacterial growth inhibition, E. coli; format: cell-based; details: ATCC25922, twofold serial dilution, max 100 μM, 18 h, read-out: E. coli Growth Inhibition Spectrum (MIC80)
[2] = MTS cytotoxicity assay, HepG2; details: human, HepG2 cells (ATCC HB.8065)
[3] = tested on: HepG2 (ATCC HB.8065) cells; experiment: MTS cytotoxicity assay, HepG2; details: selectivity index vs M. tuberculosis MIC50
Red blood cells = experiment: Hemolytic activity (red blood cell lysis assay); details: for RBC SI: selectivity index vs M. tuberculosis MIC50; for RBC HC50: hemolysis, 24 h in PBS, unit not given, same scale as MIC50, i not defined
[4] = tested on: Pseudomonas aeruginosa (ATCC 27853); experiment: Antibacterial growth inhibition, P. aeruginosa; format: cell-based; details: ATCC27853, twofold serial dilution, max 100 μM, 18 h, read-out: P. aeruginosa Growth Inhibition Spectrum (MIC80)
[5] = tested on: Acinetobacter baumannii (ATCC 19606); experiment: Antibacterial growth inhibition, A. baumannii; format: cell-based; details: ATCC19606, twofold serial dilution, max 100 μM, 18 h, read-out: A. baumannii Growth Inhibition Spectrum (MIC80)
M. avium 11 = experiment: Growth inhibition dose response against M. avium; format: cell-based; details: Mycobacterium avium, 11, 120 h; 5 days, max 500 μM
[6] = tested on: Staphylococcus aureus (ATCC 43300, MRSA); experiment: microbe, parasite or virus in culture; format: cell-based; details: 18 h, read-out: S. aureus Growth Inhibition Spectrum (MIC80)
[7] = tested on: M. bovis BCG (ATCC 35734); experiment: microbe, parasite or virus in culture; format: cell-based; details: for MIC50: Mycobacterium tuberculosis variant bovis BCG, 120 h, read-out: M. bovis BCG MIC50, 7H9 broth, 5 days, OD600
[8] = tested on: Cryptococcus neoformans (ATCC 208821); experiment: Antifungal growth inhibition, C. neoformans; format: cell-based; details: ATCC208821, twofold serial dilution, max 100 μM, 24 h, resazurin, read-out: C. neoformans Growth Inhibition Spectrum (MIC80)
[9] = tested on: Klebsiella pneumoniae (ATCC 700603, MDR); experiment: microbe, parasite or virus in culture; format: cell-based; details: ATCC700603, 18 h, read-out: K. pneumoniae Growth Inhibition Spectrum (MIC80)
[10] = tested on: M. abscessus Bamboo (smooth morphotype); experiment: Growth inhibition dose response against M. abscessus; format: cell-based; details: Mycobacteroides abscessus, 72 h; 3 days, max 500 μM
[11] = tested on: A549 (ATCC CCL-185) cells; experiment: MTS cytotoxicity assay, A549; details: selectivity index vs M. tuberculosis MIC50
[12] = MTS cytotoxicity assay, A549; details: human, A549 cells (ATCC CCL-185)
[13] = tested on: Candida albicans (ATCC 90028); experiment: Antifungal growth inhibition, C. albicans; format: cell-based; details: ATCC90028, twofold serial dilution, max 100 μM, 24 h, read-out: C. albicans Growth Inhibition Spectrum (MIC80)
[14] = tested on: Mycobacterium tuberculosis H37Rv (ATCC 27294); experiment: Growth inhibition dose response against M. tuberculosis; format: cell-based; details: 7H9 broth, OD600, twofold serial dilution from 500 μM

Row | Structure (SMILES) | MIC80 [1] | CC50 [2] | HepG2 SI [3] | RBC SI (Red blood cells) | MIC80 [4] | MIC80 [5] | MIC50 (M. avium 11) | MIC80 [6] | M. bovis BCG MIC50 ([7]; 7H9 broth, 5 days, OD600) | MIC50 [7] | MIC80 [8] | MIC80 [9] | MIC50 [10] | A549 SI [11] | CC50 [12] | MIC80 [13] | MIC50 [14] | RBC HC50 (Red blood cells)
1 | CCNc1nc(C)nc2sc(CC)cc12 [Fragment 1] | > 100 µM | > 2500 µM | >24 | >24 | > 100 µM | > 100 µM | > 500 µM | > 100 µM | 4.5 µM | 5 µM (≈ 1.11 µg/mL) | > 100 µM | > 100 µM | > 500 µM | >24 | > 2500 µM | > 100 µM | 40 µM (≈ 8.85 µg/mL) | 
2 | Clc1ccc(Oc2cnns2)c2ncccc12 [Fragment 2] | > 100 µM | 200 µM |  |  | > 100 µM | > 100 µM | 130 µM (≈ 34.3 µg/mL) | > 100 µM |  | 56 µM (≈ 14.8 µg/mL) | > 100 µM | > 100 µM | > 500 µM | >7 | > 2500 µM | > 100 µM | 43 µM (≈ 11.3 µg/mL) | 250
3 | COc1cccc2sc(S(C)(=O)=O)nc12 [Fragment 3] | > 100 µM |  |  | >13 | > 100 µM | > 100 µM | > 500 µM | > 100 µM |  | 20 µM (≈ 4.87 µg/mL) | > 100 µM | > 100 µM | > 500 µM |  |  | > 100 µM | 52 µM (≈ 12.7 µg/mL) | 
4 | Cc1c(C)n(CC(O)CNC2CCCC2)c2c(Cl)cccc12 (centres unmarked) [Fragment 4] | > 100 µM | 45 µM |  |  | > 100 µM | > 100 µM | 53 µM (≈ 17 µg/mL) | > 100 µM |  | 56 µM (≈ 18 µg/mL) | > 100 µM | > 100 µM | 125 µM (≈ 40.1 µg/mL) |  | 60 µM | > 100 µM | 55 µM (≈ 17.6 µg/mL) | 125
5 | O=C(c1cc2cc(F)ccc2s1)N1CCC1 [Fragment 5] | > 100 µM | > 2500 µM | >41 | >41 | > 100 µM | > 100 µM | > 500 µM | > 100 µM |  | 68 µM (≈ 16 µg/mL) | > 100 µM | > 100 µM | > 500 µM | >41 | > 2500 µM | > 100 µM | 60 µM (≈ 14.1 µg/mL) | 
6 | N#CSC1C=CS(=O)(=O)C1 (centres unmarked) [Fragment 6] | > 100 µM | 75 µM |  | 24 | > 100 µM | 100 µM (≈ 17.5 µg/mL) | > 500 µM | 100 µM (≈ 17.5 µg/mL) |  | 53 µM (≈ 9.29 µg/mL) | > 100 µM | > 100 µM | > 500 µM | 11 | 1000 µM | 100 µM (≈ 17.5 µg/mL) | 92 µM (≈ 16.1 µg/mL) | 2200
7 | COn1c(-c2ccc(Cl)cc2)nc2ncccc21 [Fragment 7] | > 100 µM | 850 µM | 8 | >23 | > 100 µM | > 100 µM | 145 µM (≈ 37.7 µg/mL) | > 100 µM |  | 19 µM (≈ 4.93 µg/mL) | > 100 µM | > 100 µM | 150 µM (≈ 39 µg/mL) | 17 | 1800 µM | > 100 µM | 104 µM (≈ 27 µg/mL) | 
8 | CC1CC(N)=NN1c1ccc(Cl)cn1 (centres unmarked) [Fragment 8] | 100 µM (≈ 21.1 µg/mL) | 900 µM | 7 | >20 | > 100 µM | 100 µM (≈ 21.1 µg/mL) | 275 µM (≈ 57.9 µg/mL) | > 100 µM |  | 13 µM (≈ 2.74 µg/mL) | > 100 µM | > 100 µM | > 500 µM | >20 | > 2500 µM | 100 µM (≈ 21.1 µg/mL) | 123 µM (≈ 25.9 µg/mL) | 
9 | Cc1nc(-c2c[nH]c3ccccc23)cs1 [Fragment 9] | > 100 µM | 500 µM | 4 | >18 | > 100 µM | > 100 µM | > 500 µM | > 100 µM |  | 39 µM (≈ 8.36 µg/mL) | > 100 µM | > 100 µM | > 500 µM | >20 | > 2500 µM | > 100 µM | 126 µM (≈ 27 µg/mL) | 
10 | Cc1cc2nc(CN)[nH]c2cc1C [Fragment 10] | > 100 µM | 900 µM | 7 | 16 | > 100 µM | > 100 µM | > 500 µM | > 100 µM |  | 53 µM (≈ 9.29 µg/mL) | > 100 µM | > 100 µM | > 500 µM | 15 | 1900 µM | > 100 µM | 131 µM (≈ 23 µg/mL) | 2100

From article PMC5013068, “Fragment-Based Whole Cell Screen Delivers Hits against M. tuberculosis and Non-tuberculous Mycobacteria” (Frontiers in Microbiology, 2016)
